Results taken from patent US20250204520A1, “USE OF SODIUM SELENITE IN PREVENTION AND/OR A[…] TEA TREE SUNBURN” (ANHUI AGRICULTURAL UNIVERSITY, priority 2023, published 2025).

Key:
Type in all cases: in vivo, 'Huangjinye' tea tree variety
tea tree sunburn [1] = assay: Anti-sunburn test of different concentrations of selenium: disease index, incidence and control effect after simulated sunburn; conditions: for Incidence: foliar spray 4 days, simulated sunburn 4 h; for Disease index: foliar spray once a day for 4 days, simulated sunburn 34° C., 1600 μmol·m^−2·s^−1, 4 h; for Efficacy (control effect): calculated from disease index vs control group
Experimental: A method for preventing and/or alleviating tea tree sunburn included: • Experimental base: artificial climate chamber of Anhui Agricultural University; • Experimental subjects: ‘Huangjinye’ tea tree variety; • Experimental procedure:
2. Preparation of Na2SeO3 treatment solutions with different concentrations: 1.0, 2.0, 3.0, and 4.0 mg sodium selenite crystal powders were dissolved in 1 L of pure water (with final concentrations of 1.0, 2.0, 3.0, and 4.0 mg/L, respectively).
3. Seedling cultivation: the purchased tea seedlings were planted in a flower pot with a diameter of 20 cm, where nutrient soil, vermiculite, and perlite were at a volume ratio of 2:1:1; growth environment: temperature 28° C., humidity 80%, and light intensity 500 μmol·m^−2·s^−1.
(§1) 4. Anti-sunburn test of different concentrations of selenium: tea seedlings with roughly the same growth rate were sprayed with 0, 1.0, 2.0, 3.0, and 4.0 mg/L sodium selenite solution on the surface of their leaves at a distance of 3 cm to 5 cm from the leaves until liquid droplets were falling from the leaves, spray once a day for continuous 4 days; while a control group was sprayed with the same amount of water.
(§2) After an interval of 2 d after the end of the external treatment, the tea seedlings were placed in an artificial climate chamber (temperature: 34° C., humidity: 60%, light intensity: 1600 μmol·m^−2·s^−1) to allow simulated sunburn treatment for 4 h, and then observed, photographed, and statistics were made.
The number of leaves at each disease level was counted according to the degree of disease susceptibility, and the average incidence rate and disease index were calculated according to the formula to determine the severity of tea leaf diseases. Incidence rate=number of diseased leaves/total number of investigated leaves×100%, disease index=[Σ(number of leaves at each disease level×representative value of disease level)/(total number of investigated leaves×representative value of highest level)]×100; control effect (%)=[(control group condition index-treatment group condition index)/control group condition index]×100%.

tea tree sunburn [2] = assay: Fv/Fm value of tea trees treated with exogenous selenium under sunburn; conditions: under sunburn conditions (water treatment group: 42.09%)
Experimental: as §1, §2
Influences of different concentrations of selenium on the apparent morphology of tea trees under sunburn: compared with the selenium treatment group, the water treatment group had the largest number of burned leaves and the largest lesion area. […] The decrease in Fv/Fm value of tea trees in the 4 selenium treatment groups was smaller than that in the water treatment group, where the Fv/Fm value of the treatment with a selenium concentration of 3.0 mg/L had the minimum decrease. Moreover, external spraying of sodium selenite could indeed alleviate the tea tree sunburn, and 3.0 mg/L Na2SeO3 solution had the best effect.

tea tree = assay: Malondialdehyde (MDA) content of tea tree leaves after spraying sodium selenite, with and without simulated sunburn; conditions: 3 mg/L Na2SeO3 sprayed
Experimental: A method for preventing and/or alleviating tea tree sunburn included: • Experimental base: artificial climate chamber of Anhui Agricultural University; • Experimental subjects: ‘Huangjinye’ tea tree variety;
2. Preparation of Na2SeO3 treatment solution: 3.0 mg sodium selenite crystal powder was dissolved in 1 L of pure water (concentration: 3.0 mg/L).
3. Seedling growth environment: the purchased tea seedlings were planted in a flower pot with a diameter of 20 cm (nutrient soil, vermiculite, and perlite) were at a volume ratio of 2:1:1, and then placed in a glass greenhouse.
Normal growth environment: temperature 28° C., humidity 80%, and light intensity500 μmol·m^−2·s^−1.
Sunburn-simulated environment: temperature 34° C., humidity 60%, and light intensity 1,600 μmol·m^−2·s^−1.
4. […]
After sunburn treatment for 4 h, 0.5 g samples of the 3rd and 4th leaves of mature tea tree leaves were added in a mortar separately, added with 5 mL of 5% (v/v) trichloroacetic acid and ground. […] After rapid cooling and centrifugation at 4,000 r/min for 10 min, a supernatant was detected using a UV spectrophotometer at […], 600 nm, and 450 nm separately, and the data were recorded and analyzed. […]

[3] = selenium concentration 1.0 mg/L
[4] = selenium concentration 2.0 mg/L
[5] = selenium concentration 3.0 mg/L
[6] = selenium concentration 4.0 mg/L

SMILES: O=[Se]([O-])[O-].[Na+].[Na+] [selenium, sodium selenite]
- Number of sunburned leaves and area of diseased spots (apparent morphology) (tea tree sunburn [1]; concentration of 3.0 mg/L, among the four spraying concentrations, under sunburn): least amount and the smallest lesion area
- Reduction of incidence of sunburn compared with the group without selenium treatment (tea tree sunburn [1]; [3]): 33.83%
- Incidence (tea tree sunburn [1]; [3]): 12.11 ± 3.38b %
- Disease index (tea tree sunburn [1]; [3]): 1.13 ± 0.26bc
- Efficacy (control effect) (tea tree sunburn [1]; [3]): 42.61%
- Reduction of incidence of sunburn compared with the group without selenium treatment (tea tree sunburn [1]; [4]): 29.62%
- Incidence (tea tree sunburn [1]; [4]): 12.88 ± 0.66ab %
- Disease index (tea tree sunburn [1]; [4]): 1.13 ± 0.35bc
- Efficacy (control effect) (tea tree sunburn [1]; [4]): 42.61%
- Reduction of incidence of sunburn compared with the group without selenium treatment (tea tree sunburn [1]; [5]): 78.14%
- Incidence (tea tree sunburn [1]; [5]): 4.00 ± 0.00d %
- Disease index (tea tree sunburn [1]; [5]): 0.22 ± 0.08 days
- Efficacy (control effect) (tea tree sunburn [1]; [5]): 89.38%
- Reduction of incidence of sunburn compared with the group without selenium treatment (tea tree sunburn [1]; [6]): 9.84%
- Incidence (tea tree sunburn [1]; [6]): 16.50 ± 3.80a %
- Disease index (tea tree sunburn [1]; [6]): 1.62 ± 0.23ab
- Efficacy (control effect) (tea tree sunburn [1]; [6]): 17.58%
- Decrease of Fv/Fm value compared with the control CK (tea tree sunburn [2]; [3]): 30.29%
- Decrease of Fv/Fm value compared with the control CK (tea tree sunburn [2]; [4]): 23.72%
- Decrease of Fv/Fm value compared with the control CK (tea tree sunburn [2]; [5]): 17.86%
- Decrease of Fv/Fm value compared with the control CK (tea tree sunburn [2]; [6]): 34.32%
- Reduction of MDA content compared with the control (tea tree; non-sunburn growth conditions (Se vs CK)): 22.14%
- Decrease of MDA content compared with the water treatment group under sunburn (tea tree; simulated sunburn 4 h (SeH vs CKH)): 19.89%
